Measurements from patent US4649137A, “2-acylaminomethyl-1,4-benzodiazepine compounds, the preparation thereof, and pharmaceutical compositions containing them” (Kali-Chemie Pharma GmbH, priority 1981, dated 1987).

Tests used:
mouse [1] = assay: Tail flick ray test on the mouse; format: in vivo; conditions: sc, 0.5 h, s.c., 30 minutes after administration
Description: TAIL FLICK RAY TEST ON THE MOUSE
The method is based on the procedure described by D'Amour and Smith (1941). However, non-fasting male and female mice having body weights of 16-25 g. are used instead of rats. 30 minutes before treatment with the test substance, each mouse is placed alone in a cylindrical vessel such that it cannot turn round and move forward. Its tail, lying in a narrow groove, projects out of the vessel. A particular point on the tail of each animal (at about 35 mm. from the root of the tail) is subjected to the radiant heat from a lamp of known intensity and temperature which is situated directly beneath the tail. The time in seconds required by the mouse to flick the tail out of the ray of light is determined twice, once 30 and once 15 minutes before subcutaneous administration of the test substance (10 mg./kg.). The mice for which the reaction times deviate by more than 25% are eliminated. The reaction times are again measured 15 and 30 minutes after treatment and an increase in the reaction times of more than 75% of the average values before treatment of the same mouse is regarded as an analgesic effect. The ED50 (95% confidence range) of each test substance 30 minutes after administration is regarded as that dose which increases the reaction time before treatment by more than 75% in 50% of the animals. The calculation is carried out in accordance with the method of Litchfield and Wilcoxon (1949).

rat = assay: Arthritis pain test on the rat (inhibition of the arthritis pain); format: in vivo, rat (male, strain OFA); conditions: p.o., 3 hours after oral dosage
Description: ARTHRITIS PAIN TEST ON THE RAT
Male rats of the strain OFA with a weight of 160-180 g. are anaesthetised by administration of 20 mg./kg. i.p. of phenobarbital sodium. 0.1 ml. of a suspension of Mycobacterium Smegmae (S1043) in paraffin oil (0.6 mg. of Mycobact./0.1 ml. of oil) are injected intracutaneously into the left rear paw. 14 days later, when a marked secondary arthritis has developed, particularly in the right rear paw, the effects of the test substances are investigated. 30 minutes before administration of the test substances, a control measurement in undertaken in which the ankle joint of the right rear paw is flexed three times and the number of sounds given out is counted. […] 3 hours after oral dosage of the test substance, the flexion procedure is repeated. Animals which either give out sound only once or not at all are regarded as being protected against pain. Between 9 and 20 rats are used per dose and the ED50 (95% confidence range) is determined by the method of Litchfield and Wilcoxon) (1949). The ED50 is designated at that dose which produces protection in 50% of the animals treated.

mouse [2] = assay: Determination of the minimum toxic dose; format: in vivo, mouse (male); conditions: p.o.; maximum dose 300 mg/kg; symptoms recorded for 24 hours
Description: DETERMINATION OF THE MINIMUM TOXIC DOSE
Maximum doses of 300 mg/kg. of the test substance are administered orally to male mice of 20-25 g. weight. The animals are observed carefully for toxicity symptoms for 3 hours. In addition, all symptoms and cases of death are recorded for a period of 24 hours after administration. Accompanying symptoms are also observed and recorded. If death- or toxic symptoms are observed, decreasing doses are administered to additional mice until no more toxic symptoms occur. The lowest dose which induces toxic symptoms is reported as the minimum toxic dose.

| Structure (SMILES) | ED50 (mouse [1]) [mg/kg] | ED50 (rat) [mg/kg] | Minimum toxic dose in the mouse (mouse [2]) [mg/kg] |
| --- | --- | --- | --- |
| CN1c2ccccc2C(c2ccsc2)=NCC1CNC(=O)c1ccoc1 (stereo not shown) [Example 1, 1-Methyl-2-[(furan-3-carbonyl)-aminomethyl]-5-(3'-thienyl)-1H-2,3-dihydro-1,4-benzodiazepine] | 1 | 32 to 56 | 200 |
| CN1c2ccccc2C(c2ccc(Cl)s2)=NCC1CNC(=O)c1ccc(C#N)cc1 (stereo not shown) [Example 84] |  | 18 | > 300 |
| COc1ccc2c(c1)N(C)C(CNC(=O)c1ccc(C(F)(F)F)cc1)CN=C2c1ccsc1 (stereo not shown) [Example 12] |  | 32 | > 300 |
| CN1c2ccccc2C(c2ccsc2)=NCC1CNC(=O)c1ccccc1 (stereo not shown) [Example 11] | 2.8 | ~2 | 300 |
| CN1c2ccccc2C(c2ccsc2)=NCC1CNC(=O)c1ccc(C(F)(F)F)cc1 (stereo not shown) [Example 6, 1-Methyl-2-[(4'-trifluoromethylbenzoyl)-aminomethyl]-5-(3'-thienyl)-1H-2,3-dihydro-1,4-benzodiazepine] |  | 2 | 300 |
| CN1c2ccccc2C(c2ccsc2)=NCC1CNC(=O)c1ccc(C#N)cc1 (stereo not shown) [Example 7, 1-Methyl-2-[(4-cyanobenzoyl)-aminomethyl]-5-(3'-thienyl)-1H-2,3-dihydro-1,4-benzodiazepine] |  | 8.5 | > 300 |
| CN1c2cc3c(cc2C(c2ccsc2)=NCC1CNC(=O)c1cccs1)OCO3 (stereo not shown) [Example 14] | 5 | 32 to 56 | 100 |
| COc1ccc2c(c1)N(C)C(CNC(=O)c1ccsc1)CN=C2c1ccsc1 (stereo not shown) [Example 13] | 10 | 32 to 56 | 200 |
| Cc1ccsc1C1=NCC(CNC(=O)c2ccccc2)N(C)c2ccccc21 (stereo not shown) [Example 88] | 8.3 | 18 to 32 |  |
| Cc1ccsc1C1=NCC(CNC(=O)c2ccoc2)N(C)c2ccccc21 (stereo not shown) [Example 87] | 2.6 | 18 to 32 |  |
| Cc1ccsc1C1=NCC(CNC(=O)c2ccc(C#N)cc2)N(C)c2ccccc21 (stereo not shown) [Example 89] |  | 10 |  |
| COc1ccc2c(c1)N(C)C(CNC(=O)c1ccccc1)CN=C2c1ccsc1 (stereo not shown) [Example 5, 8-Methoxy-1-methyl-2-benzoylaminomethyl-5-(3'-thienyl)-1H-2,3-dihydro-1,4-benzodiazepine] | 2.7 | ~10 | 300 |
